Where “and” joins values, the source holds several entries; their conditions need not be identical. Equal entries are not always repeated.
Each compound was assayed against 5-hydroxytryptamine receptor 6 (Homo sapiens, UniProt P50406) (assay: Radioligand Binding Assay).
Source text: Radioligand binding assay using 5-HT6R.

Chain of 5-hydroxytryptamine receptor 6 (P50406 whole entry): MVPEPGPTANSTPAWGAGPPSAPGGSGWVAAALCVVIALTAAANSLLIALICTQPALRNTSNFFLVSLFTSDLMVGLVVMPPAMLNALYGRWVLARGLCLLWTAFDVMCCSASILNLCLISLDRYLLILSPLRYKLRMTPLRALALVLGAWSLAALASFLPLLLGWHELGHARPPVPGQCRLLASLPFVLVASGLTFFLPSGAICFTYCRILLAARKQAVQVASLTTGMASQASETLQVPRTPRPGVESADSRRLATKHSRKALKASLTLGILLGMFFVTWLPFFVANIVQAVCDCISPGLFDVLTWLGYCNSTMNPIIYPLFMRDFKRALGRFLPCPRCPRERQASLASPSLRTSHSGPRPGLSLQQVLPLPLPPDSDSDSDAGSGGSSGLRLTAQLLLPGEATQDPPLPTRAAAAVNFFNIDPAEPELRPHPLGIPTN

Row | IC50 | Ki | Structure (SMILES)
1 | > 0.3 µM |  | CNc1nc2c(S(=O)(=O)c3ccccc3)nnn2c2ccccc12 [PSTQ Analog, 3{1,2}]
2 | 0.107 µM | 0.0495 µM | CC(C)Nc1nc2c(S(=O)(=O)c3ccccc3)nnn2c2ccccc12 [PSTQ Analog, 3{1,3}]
3 | 0.0152 µM | 0.00704 µM | CCC(C)Nc1nc2c(S(=O)(=O)c3ccccc3)nnn2c2ccccc12 (stereo not drawn) [PSTQ Analog, 3{1,4}]
4 | 0.381 µM |  | O=S(=O)(c1ccccc1)c1nnn2c1nc(NCc1ccccc1)c1ccccc12 [PSTQ Analog, 3{1,12}]
5 | 0.128 µM |  | O=S(=O)(c1ccccc1)c1nnn2c1nc(NCc1ccccc1Cl)c1ccccc12 [PSTQ Analog, 3{1,13}]
6 | 0.0754 µM and 0.0284 µM | 0.0132 µM | O=S(=O)(c1ccccc1)c1nnn2c1nc(NCC1CCCO1)c1ccccc12 (stereo not drawn) [PSTQ Analog, 3{1,21}]
7 |  | 0.00354 µM | O=S(=O)(c1ccccc1)c1nnn2c1nc(NCc1ccco1)c1ccccc12 [PSTQ Analog, 3{1,22}]
8 | 0.983 µM |  | O=S(=O)(c1ccccc1)c1nnn2c1nc(NCc1cccnc1)c1ccccc12 [PSTQ Analog, 3{1,23}]
9 |  | 0.0129 µM | O=S(=O)(c1ccccc1)c1nnn2c1nc(NC1CCCC1)c1ccccc12 [PSTQ Analog, 3{1,25}]
10 | 0.0108 µM | 0.00501 µM | O=S(=O)(c1ccccc1)c1nnn2c1nc(NC1CCCCC1)c1ccccc12 [PSTQ Analog, 3{1,26}]
11 | 0.00617 µM | 0.00286 µM | CC1CCCCC1Nc1nc2c(S(=O)(=O)c3ccccc3)nnn2c2ccccc12 (stereo not drawn) [PSTQ Analog, 3{1,27}]
12 | 0.0595 µM | 0.0276 µM | CC1CCC(Nc2nc3c(S(=O)(=O)c4ccccc4)nnn3c3ccccc23)CC1 (stereo not drawn) [PSTQ Analog, 3{1,28}]
13 | > 0.03 µM |  | CN(C)c1nc2c(S(=O)(=O)c3ccccc3)nnn2c2ccccc12 [PSTQ Analog, 3{1,40}]
14 | > 0.03 µM |  | CN(C)CCN(C)c1nc2c(S(=O)(=O)c3ccccc3)nnn2c2ccccc12 [PSTQ Analog, 3{1,42}]
15 |  | 0.00765 µM | CN(Cc1ccccc1)c1nc2c(S(=O)(=O)c3ccccc3)nnn2c2ccccc12 [PSTQ Analog, 3{1,43}]
16 | 0.164 µM |  | CCN(Cc1ccccc1)c1nc2c(S(=O)(=O)c3ccccc3)nnn2c2ccccc12 [PSTQ Analog, 3{1,44}]
17 | 0.0421 µM | 0.0195 µM | CC1CCCCN1c1nc2c(S(=O)(=O)c3ccccc3)nnn2c2ccccc12 (stereo not drawn) [PSTQ Analog, 3{1,49}]
18 | 0.606 µM |  | Cc1ccc(S(=O)(=O)c2nnn3c2nc(NCC(C)c2ccccc2)c2ccccc23)cc1 (stereo not drawn) [PSTQ Analog, 3{2,10}]
19 | 0.32 µM |  | Cc1ccc(S(=O)(=O)c2nnn3c2nc(NCc2ccccc2)c2ccccc23)cc1 [PSTQ Analog, 3{2,12}]
20 | 0.528 µM |  | Cc1ccc(S(=O)(=O)c2nnn3c2nc(NCc2ccccc2Cl)c2ccccc23)cc1 [PSTQ Analog, 3{2,13}]
21 | 0.74 µM |  | Cc1ccc(S(=O)(=O)c2nnn3c2nc(NC(C)c2ccccc2)c2ccccc23)cc1 (stereo not drawn) [PSTQ Analog, 3{2,20}]
22 | 1.48 µM |  | Cc1ccc(S(=O)(=O)c2nnn3c2nc(NCC2CCCO2)c2ccccc23)cc1 (stereo not drawn) [PSTQ Analog, 3{2,21}]
23 | 0.572 µM |  | CCc1ccc(S(=O)(=O)c2nnn3c2nc(NC2CCCCC2C)c2ccccc23)cc1 (stereo not drawn) [PSTQ Analog, 3{3,27}]

Row | IC50 | Ki | Structure (SMILES)
24 | 0.628 µM |  | CC(Nc1nc2c(S(=O)(=O)c3ccc(Cl)cc3)nnn2c2ccccc12)c1ccccc1 (stereo not drawn) [PSTQ Analog, 3{6,20}]
25 | 1.43 µM |  | CCc1ccccc1Nc1nc2c(S(=O)(=O)c3ccc(Br)cc3)nnn2c2ccccc12 [PSTQ Analog, 3{7,31}]
26 | 0.704 µM |  | Cc1cccc(Nc2nc3c(S(=O)(=O)c4ccc(Br)cc4)nnn3c3ccccc23)c1C [PSTQ Analog, 3{7,37}]
27 | 0.0359 µM | 0.0167 µM | CCC(C)Nc1nc2c(S(=O)(=O)c3cc(C)ccc3C)nnn2c2ccccc12 (stereo not drawn) [PSTQ Analog, 3{8,4}]
28 | 0.77 µM |  | CCc1ccccc1Nc1nc2c(S(=O)(=O)c3cc(C)ccc3C)nnn2c2ccccc12 [PSTQ Analog, 3{8,31}]
29 | 2.01 µM |  | Cc1ccc(S(=O)(=O)c2nnn3c2nc(NCCc2ccccc2)c2ccccc23)cc1C [PSTQ Analog, 3{9,9}]
30 | 0.602 µM |  | Cc1ccc(S(=O)(=O)c2nnn3c2nc(NCc2ccccc2C)c2ccccc23)cc1C [PSTQ Analog, 3{9,13}]
31 | 0.356 µM |  | Cc1ccc(S(=O)(=O)c2nnn3c2nc(NC(C)c2ccccc2)c2ccccc23)cc1C (stereo not drawn) [PSTQ Analog, 3{9,20}]
32 | 0.779 µM |  | Cc1ccc(S(=O)(=O)c2nnn3c2nc(NCC2CCCO2)c2ccccc23)cc1C (stereo not drawn) [PSTQ Analog, 3{9,21}]
33 | 0.295 µM |  | CCc1ccccc1Nc1nc2c(S(=O)(=O)c3ccc(C)c(C)c3)nnn2c2ccccc12 [PSTQ Analog, 3{9,31}]
34 | 0.971 µM |  | CCN(Cc1ccccc1)c1nc2c(S(=O)(=O)c3ccc(C)c(C)c3)nnn2c2ccccc12 [PSTQ Analog, 3{9,44}]
35 | 1.31 µM |  | Cc1ccc(S(=O)(=O)c2nnn3c2nc(N2CCCCCC2)c2ccccc23)cc1C [PSTQ Analog, 3{9,53}]
36 | 1.2 µM |  | Cc1ccc(S(=O)(=O)c2nnn3c2nc(N2CCN(c4ccccn4)CC2)c2ccccc23)cc1C [PSTQ Analog, 3{9,58}]
37 | 2.18 µM |  | Cc1cc(C)c(S(=O)(=O)c2nnn3c2nc(NC(C)C)c2ccccc23)c(C)c1 [PSTQ Analog, 3{10,3}]
38 | 0.964 µM |  | CCC(C)Nc1nc2c(S(=O)(=O)c3c(C)cc(C)cc3C)nnn2c2ccccc12 (stereo not drawn) [PSTQ Analog, 3{10,4}]
39 | 1.46 µM |  | Cc1cc(C)c(S(=O)(=O)c2nnn3c2nc(NCC2CCCO2)c2ccccc23)c(C)c1 (stereo not drawn) [PSTQ Analog, 3{10,21}]
40 | 1 µM |  | Cc1cccc(Nc2nc3c(S(=O)(=O)c4c(C)cc(C)cc4C)nnn3c3ccccc23)c1 [PSTQ Analog, 3{10,32}]
41 | 0.67 µM |  | COc1cccc(Nc2nc3c(S(=O)(=O)c4c(C)cc(C)cc4C)nnn3c3ccccc23)c1 [PSTQ Analog, 3{10,33}]
42 | 1.8 µM |  | O=S(=O)(c1ccccc1)c1nnn2c1nc(NCC1CCCO1)c1cc(Cl)ccc12 (stereo not drawn) [PSTQ Analog, 3{12,21}]
43 | 5.74 µM |  | O=S(=O)(c1ccccc1)c1nnn2c1ncc1ccccc12 [PSTQ Analog, 8]
44 | 1.05 µM |  | CCSc1nc2c(S(=O)(=O)c3ccccc3)nnn2c2ccccc12 [PSTQ Analog, 9]
45 | 1.37 µM |  | COCCOc1nc2c(S(=O)(=O)c3ccccc3)nnn2c2ccccc12 [PSTQ Analog, 10]

Reference: BindingDB's records for doi:10.1021/cc1000049 (Chemical Diversity Research Institute, 2010)
